The subject of data set [1] is SCN9A mRNA. Description: SCN9A nested qPCR by SYBR Green in PC3 cells. Type of data set: cell-based, human. The settings on record: 24 hours. Here is the method: “SCN-ASO 7” was evaluated for its ability to inhibit the expression of the human SCN9A mRNA in PC3 cells by qPCR against a set of exon-specific primers as follows. [Cell Culture & ASO Treatment] PC3 cells grown in 60 mm culture dish containing 5 mL culture medium were incubated with “SCN-ASO 7” for 24 hours at 0 (negative control), 10, 100 or 1,000 zM. (2 culture dishes per concentration) [RNA Extraction] […] [cDNA Synthesis by One Step RT-PCR] […] NO: 78); and SCN-exon 9_reverse: (5'→3') […] NO: 79)]. […] [Nested qPCR Amplification] […] NO: 80); SCN-exon 4_reverse: (5'→3') […] NO: 81); SCN-exon 5_forward: (5'→3') […] NO: 82); SCN-exon 5_reverse: (5'→3') […] NO: 83); SCN-exon 6_forward: (5'→3') […] NO: 84); SCN-exon 6_reverse: (5'→3') […] NO: 85)]. The PCR reactions were probed with SYBR Green (Takara, Japan). […] “SCN-ASO 3” was evaluated for its ability to inhibit the expression of the full-length SCN9A mRNA in PC3 cells according to the protocol described in “SCN9A Example 2”, unless noted otherwise. “SCN-ASO 8” was evaluated for its ability to inhibit the expression of the full-length SCN9A mRNA in PC3 cells according to the protocol described in “SCN9A Example 2”, unless noted otherwise.
In general terms: Quantitative PCR measures a nucleic acid by following its amplification.

In data set [2] the test system is sodium current in PC3 cells. Briefly: CoroNa assay of sodium current in PC3 cells. The settings on record: 30 hours. The format is cell-based, human. As to the method:
Cellular sodium current is measured by patch clamp. As sodium ions enter cell, the intra-cellular sodium ion level increases. The intra-cellular sodium level can be probed using a sodium ion sensitive dye. “CoroNa Green” is a dye with a sodium ion chelator of crown ether type. Upon chelation with a sodium ion, “CoroNa Green” emits green fluorescence. “CoroNa Green” has been used to indirectly measure the intra-cellular sodium level. […] [Proc. Natl. Acad. Sci. USA vol 106(38), 16145-16150 (2009)]
PC3 cells are known to abundantly express the human SCN9A mRNA, although there are other SCN subtypes concomitantly expressed. [Br J. Pharmacol. vol 156, 420-431 (2009)] Thus an inhibition of SCN9A mRNA expression may lead to a considerable reduction of the sodium current in PC3 cells, if the sodium ion current by the Nav1.7 sodium channel subtype occupies a marked portion of the total sodium ion current in PC3 cells. It is note that the SCN9A mRNA encodes the Nav1.7 sodium channel subtype.
“SCN-ASO 7” was evaluated for its ability to inhibit the sodium ion current in PC3 cells using “CoroNa Green” as follows.
[ASO Treatment] PC3 cells grown in 35 mm culture dish containing 2 mL F-12K medium were treated with “SCN-ASO 7” at 0 zM (negative control), 100 zM or 1 aM.
[CoroNa Assay] 30 hours later, the cells were washed with 2 mL HBSS (Hank's Balanced Salt Solution, Cat. Number 14025-092, Life Technologies), and then charged with 2 mL fresh HBSS. Then the cells were treated with 5 μM “CoroNa Green” (Cat. Number C36676, Life Technologies) at 37° C. 30 min later, the cells were washed 2× with 2 mL HBSS, and charged with 2 mL fresh HBSS. The culture dish was mounted on an Olympus fluorescence microscope equipped with a digital video camera to continuously capture the green fluorescence images of the cells. The cells were acutely treated with 100 mM NaCl, and then the changes in fluorescence cellular images were digitally recorded over a period of 3 min. There were about 4 cells per frame on average. The fluorescence intensities from each individual cell were traced at the resolution of a second. The traces of the intracellular fluorescence intensities from individual cells were overlaid and averaged at each time point. The average of the traces from the individual cells of each ASO concentration were plotted as provided in FIG. 30A using ImageJ program (version 1.50i, NIH). The average fluorescence intensity trace was taken as the individual intra-cellular sodium concentration trace for the cells treated with “SCN-ASO 7” at 0 (negative control), 100 or 1,000 zM.
“SCN-ASO 3” was evaluated for its ability to inhibit the sodium current in PC3 cells using “CoroNa Green” according to the protocol described in “SCN9A Example 5”, unless noted otherwise.
“SCN-ASO 8” was evaluated for its ability to inhibit the sodium current in PC3 cells using “CoroNa Green” according to the protocol described in “SCN9A Example 3”, unless noted otherwise.

Data set [3] deals with human IDO1 pre-mRNA. Briefly: IDO1 nested PCR for exon skipping in SKOV3 cells. The format is cell-based. The settings on record: 48 hours. As to the method: “IDO-ASO 1” was evaluated for its ability to induce exon skipping in SKOV3 cells (Cat. Number HTB-77, ATCC) by IDO1 nested PCR as follows. [Cell Culture & ASO Treatment] SKOV3 (human ovary adenocarcinoma) cells were subcultured in 60 mm culture dish containing 5 mL McCoy's 5A modified medium supplemented with 10% FBS, 1% streptomycin/penicillin, 1% L-glutamine, and 1% sodium pyruvate under 5% CO2 at 37° C., and treated with “IDO-ASO 1” for 48 hours at 0 zM (negative control), 10 zM, 100 zM or 1 aM. [RNA Extraction & cDNA Synthesis by One-Step RT-PCR] Total RNA was extracted from the cells using “Universal RNA Extraction Kit” (Cat. Number 9767, Takara) according to the manufacturer's instructions. […] NO: 114); and IDO-exon 10_reverse: (5'→3') […] [Nested PCR Amplification] 1 μL of cDNA was further amplified in a 20 μL nested PCR reaction (Cat. No. K2612, Bioneer) against a set of exon-specific primers [IDO-exon 4_forward: (5'→3') […] NO: 116); and IDO-exon 9_reverse: (5'→3') […] [Identification of Exon Skipping Product] The PCR products were subjected to electrophoretic separation on a 2% agarose gel. The bands of target size were collected and analyzed by Sanger sequencing. […] [ASO Treatment] SKOV3 cells grown in 60 mm culture dish were treated with “IDO-ASO 5” at 0 (negative control), 1, 3, 10, 30 or 100 aM for 48 hours. [cDNA Synthesis by One-step PCR] […] NO: 119); and IDO-exon 8_reverse: (5'→3') […] [Nested PCR Amplification] 1 μL of cDNA was further amplified in a 20 μL nested PCR (Cat. No. K2612, Bioneer) reaction using a set of exon-specific primers [IDO-exon 1n_forward: (5'→3') […] NO: 121); and IDO-exon 8n_reverse: (5'→3') […] “IDO-ASO 6” was evaluated for its ability to induce exon skipping in SKOV3 cells by IDO1 nested PCR as described in “IDO1 Example 3” unless noted otherwise.

Data set [4] relates to B16F10 melanoma. Description: Antitumor activity against B16F10 melanoma in C57BL/6 mice. Type of data set: in vivo. Here is the method:
“PD-ASO 2” was evaluated for its antitumor activity in male C57BL/6 mice (4 weeks old) injected with B16F10 melanoma cells as provided below.
[Inoculation of B16F10 Melanoma Cells] B16F10 mouse melanoma cells (Cat. Number CRL-6475, ATCC) were maintained in 150 mm culture dish containing DMEM supplemented with 10% FBS, 1% streptomycin/penicillin, and 0.01 mg/ml bovine insulin. In Day 0, ca 1×10^5 B16F10 cells dissolved in 50 μL PBS were injected to each animal at the right rear flank.
[Grouping & ASO Treatment] In Day 3, the animals were randomly assigned by weight to 4 groups of 0 (negative control), 2, 10 and 50 pmole/Kg “PD-ASO 2”. (N=15 per group)
Injection solutions were prepared by serially diluting an aqueous mother stock solution of “PD-ASO 2” in PBS to 0 nM (PBS only), 0.4 nM, 2 nM and […] “PD-ASO 2” for the negative control, 2, 10 and 50 pmole/Kg “PD-ASO 2” group, respectively.
The animals were subcutaneously administered with an injection solution at 5 mL/Kg, 2× per week during Day 3 to Day 17.
[Anti-tumor Activity] The anti-tumor activity was assessed by changes in the tumor volume between each ASO treatment group and the negative control group.

Setting [5] is: 2 pmole/Kg subcutaneous, 2× per week Day 3 to Day 17.

{Fethoc} = N-terminal Fethoc capping group (publication's abbreviation); [C(1O2)] = modified PNA monomer acting as cytosine, C(pOq) type, 1O2; [A(5)] = modified PNA monomer acting as adenine, A(p) type, p=5; [G(5)] = modified PNA monomer acting as guanine, G(p) type, p=5; [G(6)] = modified PNA monomer acting as guanine, G(p) type, p=6; {NH2} = C-terminal non-substituted amino (amide) group

Take “Fethoc-TA(5)A-A(5)TA(5)-CGC(1O2)-AA(5)A-A(5)A-NH2 (TAAATACGCAAAAA; all peptide nucleic acid (PNA), [A(5)] at 2, 4, 6, 11, 13, [C(1O2)] at 9, 5' {Fethoc}, 3' {NH2}; peptide nucleic acid backbone) [SCN-ASO 3]”: the “decrease of expression levels of SCN9A exons 4-6 (SYBR Green)” value is reported as over 90% in data set [1] (PC3 cells, 10 zM); about 70% in data set [1] (PC3 cells, 100 zM); about 80% in data set [1] (PC3 cells, 1,000 zM). Besides, the “decrease of sodium current (CoroNa)” value in data set [2] (PC3 cells, 100 zM) turned out to be 18%. Besides, in data set [2] (PC3 cells, 1,000 zM), the “decrease of sodium current / sodium channel activity (CoroNa)” value was determined as 31%. For the same substance, the “average cellular fluorescence intensity (CoroNa Green)” value in data set [2] (PC3 cells, 1,000 zM, at 100 sec after 100 mM NaCl) was found to be 61.36 arbitrary unit.
As for “Fethoc-GG(6)C-AA(5)G-A(5)CC(1O2)-TGA(5)-T-NH2 (GGCAAGACCTGAT; splice-switching; all peptide nucleic acid (PNA), [G(6)] at 2, [A(5)] at 5, 7, 12, [C(1O2)] at 9, 5' {Fethoc}, 3' {NH2}; peptide nucleic acid backbone) [IDO-ASO 6]”, the “IDO1 exon skipping by nested PCR” value is “clearly yielded a single mRNA splice variant lacking exons 2-5” in data set [3] (1 to 30 aM) and “the exon skipping band was not detected” in data set [3] (100 aM).
Take “Fethoc-CA(5)A-A(5)CC(1O2)-TTA(5)-CGG(6)-A-NH2 (CAAACCTTACGGA; splice-switching; all peptide nucleic acid (PNA), [A(5)] at 2, 4, 9, [C(1O2)] at 6, [G(6)] at 12, 5' {Fethoc}, 3' {NH2}; peptide nucleic acid backbone) [IDO-ASO 5]”: in data set [3] (30 and 100 aM), the “IDO1 exon skipping by nested PCR” value is “clearly yielded the mRNA splice variants lacking exons 2-4 and exons 2-6”.
As to “Fethoc-CC(1O2)T-CA(5)C-CTG(5)-TTA(5)-C(1O2)CA(5)-C-NH2 (CCTCACCTGTTACCAC; splice-switching; all peptide nucleic acid (PNA), [C(1O2)] at 2, 13, [A(5)] at 5, 12, 15, [G(5)] at 9, 5' {Fethoc}, 3' {NH2}; peptide nucleic acid backbone) [PD-ASO 2]”, the “average tumor weight in Day 19” value in data set [4] (2 pmole/Kg) is about 0.35 g. The “inhibition of tumor growth by weight in Day 19” value in data set [4] (2 pmole/Kg) is recorded as about 70%. Moreover, the “inhibition of tumor growth (tumor volume) in Day 19” value in data set [4] (setting [5]) is listed as about 55%. Moreover, the “tumor volume in Day 19” value in data set [4] (setting [5]) is on record as about 375 mm^3. The “antitumor activity (tumor volume)” value in data set [4] (10 pmole/Kg, whole period) is reported as “marginal without significance”; in data set [4] (50 pmole/Kg, Day 10 to Day 17) it was “comparable to that of the 2 pmole/Kg group”; in data set [4] (50 pmole/Kg, Day 19), “disappeared in Day 19”.

(Values after patent publication US12624068B2, “Exon skipping by peptide nucleic acid derivatives” (OliPass Corporation, priority 2016, dated 2026).)
